Test results taken from ChEMBL document CHEMBL5131399, “Broadening antifungal spectrum and improving metabolic stablity based on a scaffold strategy: Design, synthesis, and evaluation of novel 4-phenyl-4,5-dihydrooxazole derivatives as potent fungistatic and fungicidal reagents” (Eur J Med Chem, 2022).
≈ marks a conversion by molar mass, not a printed value.

What was measured:
[1] = test system: Candida albicans; assay: Antifungal activity against FLC-resistant Candida albicans 901 assessed as fungal growth inhibition by NCCLS protocol based method; type: functional
[2] = test system: Candida albicans; assay: Fungicidal activity against Candida albicans CPCC400616 assessed as reduction in colony forming units at 2 to 8 times MIC incubated for 24 hrs by time kill assay; type: functional, organism-based; conditions: DDE = dose-dependent effect
[3] = test system: Candida albicans; assay: Antifungal activity against FLC-resistant Candida albicans 311 assessed as fungal growth inhibition by NCCLS protocol based method; type: functional
[4] = AUClast in Sprague-Dawley rat at 10 mg/kg, po measured after 24 hrs by LC-MS/MS analysis; type: ADME, organism-based; parameters: dose 10 mg/kg, time 24 hrs, route po; conditions: in vivo
[5] = Oral bioavailability in Sprague-Dawley rat at 10 mg/kg measured measured after 24 hrs by LC-MS/MS analysis; type: ADME, organism-based; conditions: in vivo
[6] = test system: MCF7; assay: Cytotoxicity against human MCF7 cells assessed as inhibition of cell growth incubated for 4 hrs by MTT assay; type: functional, cell-based; conditions: MCF7, 4 h
[7] = test system: A549; assay: Cytotoxicity against human A549 cells assessed as inhibition of cell growth incubated for 4 hrs by MTT assay; type: functional, cell-based; conditions: A549, 4 h
[8] = test system: Candida albicans; assay: Fungicidal activity against Candida albicans CPCC400616 assessed as minimum fungicidal concentration incubated for 48 hrs; type: functional
[9] = Stability in human plasma assessed as compound remaining measured at 60 mins by LC/MS-MS analysis; type: ADME, cell-free; conditions: read-out: Stability
[10] = Metabolic stability in human liver microsomes assessed as half life preincubated for 10 mins followed by NADPH addition and measured after 5 to 60 mins by LC-MS/MS analysis; type: ADME, Microsome; conditions: time 15-70 min
[11] = Metabolic stability in human microsomes assessed as intrinsic clearance preincubated for 10 mins followed by NADPH addition and measured after 5 to 60 mins by LC-MS/MS analysis; type: ADME, Microsome; conditions: time 15-70 min
[12] = test system: Candida albicans; assay: Antifungal activity against FLC-resistant Candida albicans 904 assessed as fungal growth inhibition by NCCLS protocol based method; type: functional
[13] = test system: Candida albicans; assay: Antifungal activity against FLC-resistant Candida albicans CaR assessed as fungal growth inhibition by NCCLS protocol based method; type: functional
[14] = test system: Candida albicans; assay: Antifungal activity against FLC-resistant Candida albicans 632 assessed as fungal growth inhibition by NCCLS protocol based method; type: functional
[15] = Half life in Sprague-Dawley rat at 3 mg/kg, iv measured after 24 hrs by LC-MS/MS analysis; type: ADME, organism-based; conditions: in vivo
[16] = test system: Candida albicans; assay: Antifungal activity against FLC-resistant Candida albicans 100 assessed as fungal growth inhibition by NCCLS protocol based method; type: functional
[17] = test system: Nakaseomyces glabratus; assay: Antifungal activity against Candida glabrata clinical isolate assessed as fungal growth inhibition by NCCLS protocol based method; type: functional
[18] = test system: HepG2; assay: Cytotoxicity against human HepG2 cells assessed as inhibition of cell growth incubated for 4 hrs by MTT assay; type: functional, cell-based; conditions: HepG2, 4 h
[19] = test system: Candida albicans; assay: Fungicidal activity against Candida albicans CPCC400616 assessed as reduction in colony forming units at 8 times MIC incubated for 24 hrs by time kill assay; type: functional
[20] = test system: Candida parapsilosis; assay: Antifungal activity against Candida parapsilosis GIM2.190 assessed as fungal growth inhibition by NCCLS protocol based method; type: functional; conditions: Lodderomyces parapsilosis
[21] = Cytotoxicity against human HEK293T cells assessed as inhibition of cell growth incubated for 4 hrs by MTT assay; type: toxicity, cell-based, HEK-293T
[22] = test system: Candida albicans; assay: Antifungal activity against Candida albicans ATCC SC5314 assessed as fungal growth inhibition by NCCLS protocol based method; type: functional
[23] = test system: Candida albicans; assay: Antibiofilm activity against FLC-resistant Candida albicans CPCC400616 assessed as assessed as inhibition of biofilm formation measured at 18 hrs by XTT reduction assay; type: functional
[24] = test system: Candida albicans; assay: Antifungal activity against Candida albicans CPCC400616 assessed as fungal growth inhibition by NCCLS protocol based method; type: functional
[25] = test system: Candida albicans; assay: Fungicidal activity against Candida albicans CPCC400616 assessed as minimum inhibitory concentration incubated for 48 hrs; type: functional
[26] = Stability in human plasma assessed as compound remaining measured at 120 mins by LC/MS-MS analysis; type: ADME, cell-free; conditions: read-out: Stability
[27] = test system: Cryptococcus neoformans; assay: Antifungal activity against Cryptococcus neoformans CGMCC 2.3161 assessed as fungal growth inhibition by NCCLS protocol based method; type: functional
[28] = Stability in human plasma assessed as half life measured at 120 mins by LC/MS-MS analysis; type: ADME, cell-free
[29] = test system: Candida albicans; assay: […] for fungicidal activity against Candida albicans CPCC400616; type: functional
[30] = Metabolic stability in human liver microsomes assessed as compound remaining preincubated for 10 mins followed by NADPH addition and measured at 60 mins by LC-MS/MS analysis; type: ADME, Microsome; conditions: time 70 min, read-out: Stability
[31] = test system: Candida albicans; assay: Antibiofilm activity against FLC-resistant Candida albicans CPCC400616 assessed as assessed as inhibition of biofilm formation measured at 24 hrs by XTT reduction assay; type: functional
[32] = test system: Aspergillus fumigatus; assay: Antifungal activity against Aspergillus fumigatus CGMCC3.7795 assessed as fungal growth inhibition by NCCLS protocol based method; type: functional
[33] = test system: Candida albicans; assay: Antibiofilm activity against FLC-resistant Candida albicans CPCC400616 assessed as assessed as inhibition of biofilm formation measured at 6 hrs by XTT reduction assay; type: functional
[34] = Half life in Sprague-Dawley rat at 10 mg/kg, po measured after 24 hrs by LC-MS/MS analysis; type: ADME, organism-based; conditions: in vivo
[35] = test system: Candida albicans; assay: Antifungal activity against FLC-resistant Candida albicans 103 assessed as fungal growth inhibition by NCCLS protocol based method; type: functional
[36] = AUClast in Sprague-Dawley rat at 3 mg/kg, iv measured after 24 hrs by LC-MS/MS analysis; type: ADME, organism-based; parameters: time 24 hrs, dose 3 mg/kg, route iv; conditions: in vivo
[37] = test system: Candida tropicalis; assay: Antifungal activity against Candida tropicalis CGMCC 2.3739 assessed as fungal growth inhibition by NCCLS protocol based method; type: functional
[38] = test system: Candida albicans; assay: Antibiofilm activity against FLC-resistant Candida albicans CPCC400616 assessed as assessed as inhibition of biofilm formation measured at 3 hrs by XTT reduction assay; type: functional
[39] = test system: Pichia kudriavzevii; assay: Antifungal activity against Candida krusei GIM2.1 assessed as fungal growth inhibition by NCCLS protocol based method; type: functional

Fc1ccc(C2(Cn3ccnc3)COC(c3ccc(-c4ccccc4F)s3)=N2)cc1 (centres undefined)
MIC [1]: 0.125 µg/mL (≈ 0.297 µM)
Activity [2]: Dde
MIC [3]: 0.125 µg/mL (≈ 0.297 µM)
AUC(0-t) at 24 h [4]: 466 ng·h/mL
bioavailability [5]: 15.1%
IC50 [6]: > 50 µM
IC50 [7]: > 50 µM
MFC [8]: 0.125 µg/mL (≈ 0.297 µM)
remaining at 1 h [9]: 98.7%
half-life [10]: 1.18 h
CLint [11]: 19.7 µL/min/mg
MIC [12]: 1 µg/mL (≈ 2.37 µM)
MIC [13]: 0.25 µg/mL (≈ 0.593 µM)
MIC [14]: 0.5 µg/mL (≈ 1.19 µM)
half-life [15]: 1.02 h
MIC [16]: 0.5 µg/mL (≈ 1.19 µM)
MIC [17]: 0.06 µg/mL (≈ 0.142 µM)
IC50 [18]: 17 µM
Activity [19]: 2 log10CFU/ml
MIC [20]: 0.25 µg/mL (≈ 0.593 µM)
IC50 at 4 h [21]: 14.2 µM
MIC [22]: 0.03 µg/mL (≈ 0.0712 µM)
MIC50 [23]: 2 µg/mL (≈ 4.75 µM)
MIC [24]: 0.03 µg/mL (≈ 0.0712 µM)
MIC [25]: 0.03 µg/mL (≈ 0.0712 µM)
remaining at 2 h [26]: 101%
MIC [27]: 0.125 µg/mL (≈ 0.297 µM)
half-life [28]: > 4.8 h
Ratio [29]: 4
remaining at 1 h [30]: 49.7%
MIC50 [31]: 8 µg/mL (≈ 19 µM)
MIC [32]: 0.25 µg/mL (≈ 0.593 µM)
MIC50 [33]: 1 µg/mL (≈ 2.37 µM)
half-life [34]: 4.44 h
MIC [35]: 0.25 µg/mL (≈ 0.593 µM)
AUC(0-t) at 24 h [36]: 925 ng·h/mL
MIC [37]: 0.03 µg/mL (≈ 0.0712 µM)
MIC50 [38]: 0.125 µg/mL (≈ 0.297 µM)
MIC [39]: 0.25 µg/mL (≈ 0.593 µM)
